From ChEMBL document CHEMBL5143716, “Design, Synthesis, and Optimization of Macrocyclic Peptides as Species-Selective Antimalaria Proteasome Inhibitors” (J Med Chem, 2022)
Values after ≈ are worked out from the molar mass of the structure shown.

Assays:
[1] = Kinetic solubility of compound in PBS at pH 6.8 incubated for 24 hrs by UPLC/MS analysis; type: physicochemical; details: read-out: Kinetic_solubility
[2] = test system: human MDR1 (P-gp); test: Apparent permeability across apical to basolateral side in pig LLC-PK1 cells expressing human MDR1 at 10 uM measured after 60 mins by LC/MS/MS analysis; type: ADME, cell-based, Sus scrofa
[3] = Permeability of the compound in PRISMA HT buffer at pH 7.4 at 10 uM incubated for 3 hrs by PAMPA based LC/MS/MS analysis; type: ADME; details: read-out: permeability
[4] = Hepatic blood flow in mouse at […], iv administered as cassette dose; type: ADME, organism-based; details: in vivo, dose 0.25 mg/kg
[5] = AUC in mouse at […], iv administered as cassette dose; type: ADME, organism-based; set-up: dose 0.25 mg/kg, route iv; details: in vivo

Row | Compound | solubility kinetic at 24 h [1] [µg/mL] | Papp A→B at 1 h, 10 µM [2] [×10⁻⁶ cm/s] | Papp at 3 h, 10 µM [3] [×10⁻⁶ cm/s] | QH [4] [mL/min/kg] | AUC [5] [ng·h/mL]
1 | O=C(NCC(F)(F)F)[C@@H]1Cc2cccc(c2)Oc2cccc(c2)C[C@H](N2CCCC2=O)C(=O)N[C@@H](CCc2ccccc2)C(=O)N1 | 3.8 (≈ 5.97 µM) |  |  |  | 
2 | O=C(NC1CCCC1)[C@@H]1CCCCOc2cccc(c2)CC2(COC2)C(=O)N[C@@H](CCN2CCOCC2)C(=O)N1 | 68 (≈ 122 µM) | > 2.8 | 8.9 |  | 
3 | O=C1N[C@H](c2nnc(C(F)(F)F)[nH]2)CCCCOc2cccc(c2)C[C@H](N2CCCC2=O)C(=O)N[C@H]1CCc1ccccc1 | 2 (≈ 3.26 µM) | > 2.1 | 8.2 |  | 
4 | O=C(NC1CCCC1)[C@@H]1CCCCOc2cccc(c2)C[C@H](N2CCCC2=O)C(=O)N[C@@H](CCN2CCC(F)(F)CC2)C(=O)N1 | > 130 | 4 | 13.3 |  | 
5 | CC(=O)N[C@H]1Cc2cccc(c2)Oc2cccc(c2)C[C@@H](C(=O)NCC(F)(F)F)NC(=O)[C@H](CCc2ccccc2)NC1=O | < 1.4 | > 0.077 |  |  | 
6 | O=C(NCC1CC1)[C@@H]1CCCCOc2cccc(c2)C[C@H](N2CCCC2=O)C(=O)N[C@@H](CCc2ccccc2)C(=O)N1 | 49 (≈ 85.3 µM) | 6.8 | 10.3 |  | 
7 | O=C(NCC(F)(F)F)[C@@H]1CCCCOc2cccc(c2)C[C@H](N2CCCC2=O)C(=O)N[C@@H](CCc2ccccc2)C(=O)N1 | 76 (≈ 126 µM) | 5.3 | 18.7 | 93.33 | 0.6
8 | O=C(NCC(F)(F)F)[C@@H]1COCCOc2cccc(c2)C[C@H](N2CCCC2=O)C(=O)N[C@@H](CCc2ccccc2)C(=O)N1 | < 130 |  | 12 |  | 
9 | O=C(NC1CCCC1)[C@@H]1CCCCOc2cccc(c2)C[C@H](N2CCCC2=O)C(=O)N[C@@H](CCc2ccc(F)cc2)C(=O)N1 | 17 (≈ 28 µM) | 4.5 | 21.2 |  | 
10 | O=C1N[C@H](c2nnc(C(F)(F)F)o2)CCCCOc2cccc(c2)C[C@H](N2CCCC2=O)C(=O)N[C@H]1CCc1ccccc1 | 6.2 (≈ 10.1 µM) | 1.1 | 16 |  | 
11 | O=C(NC1CCCC1)[C@@H]1CCCCOc2cccc(c2)C[C@H](N2CCC2)C(=O)N[C@@H](CCN2CCOCC2)C(=O)N1 | > 140 | > 0.2 |  |  | 
12 | CC1(C)Cc2cccc(c2)OCCCC[C@@H](C(=O)NC2CCCC2)NC(=O)[C@H](CCN2CCOCC2)NC1=O | 90 (≈ 166 µM) | 3.5 | 26.9 |  | 
13 | Cc1ccc(CNC(=O)[C@@H]2Cc3cccc(c3)Oc3cccc(c3)C[C@H](N)C(=O)N[C@@H](CCc3ccccc3)C(=O)N2)cc1 | < 1.6 | > 0.29 |  |  | 
14 | O=C(NC1CCCC1)[C@@H]1CCCCOc2cccc(c2)C[C@H](N2CCCC2=O)C(=O)N[C@@H](COc2ccccc2)C(=O)N1 | 20 (≈ 33.9 µM) |  | 20.8 |  | 
15 | O=C(NC1CCCC1)[C@@H]1CCCCOc2cccc(c2)C[C@H](N2CCCC2=O)C(=O)N[C@@H](CCc2ccccc2)C(=O)N1 | 100 (≈ 170 µM) | 5.7 | 15.1 |  | 
16 | CN[C@H]1Cc2cccc(c2)OCCCC[C@@H](C(=O)NC2CCCC2)NC(=O)[C@H](CCN2CCOCC2)NC1=O | > 140 | > 0.2 |  |  | 
17 | CN(C)[C@H]1Cc2cccc(c2)OCCCC[C@@H](C(=O)NC2CCCC2)NC(=O)[C@H](CCN2CCOCC2)NC1=O | > 130 | 0.12 | 2 |  | 
18 | CC(=O)N[C@H]1Cc2cccc(c2)Oc2cccc(c2)C[C@@H](C(=O)NCc2ccc(C)cc2)NC(=O)[C@H](CCc2ccccc2)NC1=O |  | > 3.4 | 2.2 |  | 
19 | O=C(NCC(F)F)[C@@H]1CCCCOc2cccc(c2)C[C@H](N2CCCC2=O)C(=O)N[C@@H](CCc2ccccc2)C(=O)N1 | 35 (≈ 59.9 µM) | > 1.1 | 7.2 |  | 
20 | O=C(NC1(C(F)(F)F)CC1)[C@@H]1CCCCOc2cccc(c2)C[C@H](N2CCCC2=O)C(=O)N[C@@H](CCc2ccccc2)C(=O)N1 | 31 (≈ 49.3 µM) | 4.4 | 14.5 |  | 
21 | Cn1cc(CNC(=O)[C@@H]2CCCCOc3cccc(c3)C[C@H](N3CCCC3=O)C(=O)N[C@@H](CCc3ccccc3)C(=O)N2)cn1 | > 120 | > 0.6 | 1.1 |  | 
22 | O=C(NC1CCCC1)[C@@H]1CCCCOc2cccc(c2)C[C@H](N2CCCC2=O)C(=O)N[C@@H](CCN2CCOCC2)C(=O)N1 | > 130 | > 0.2 | 1.5 |  | 
